Publication PMC3261798, “Design, Synthesis, and Biological Evaluation of PKD Inhibitors” (Pharmaceutics, 2011)
Several values for one entry are separate records, joined by “and”; a condition that tells them apart may be missing. Equal entries are not always repeated. Each block holds one compound with its values, some of them ahead of it.

What was measured:
[1] = system: all PKD isoforms; conditions: cited from earlier work
[2] = target: T1, PKD1 (Homo sapiens, UniProt Q15139); experiment: Cellular PKD1 inhibition: densitometry of Western blots for PKD1 autophosphorylation at S916 in PMA-stimulated LNCaP cells; format: cell-based; conditions: for EC50: PMA-induced autophosphorylation of endogenous PKD1 in LNCaP prostate cancer cells; for fold improvement in cellular activity over CID755673: cellular EC50 relative to CID755673
T1 sequence (Q15139 1-912): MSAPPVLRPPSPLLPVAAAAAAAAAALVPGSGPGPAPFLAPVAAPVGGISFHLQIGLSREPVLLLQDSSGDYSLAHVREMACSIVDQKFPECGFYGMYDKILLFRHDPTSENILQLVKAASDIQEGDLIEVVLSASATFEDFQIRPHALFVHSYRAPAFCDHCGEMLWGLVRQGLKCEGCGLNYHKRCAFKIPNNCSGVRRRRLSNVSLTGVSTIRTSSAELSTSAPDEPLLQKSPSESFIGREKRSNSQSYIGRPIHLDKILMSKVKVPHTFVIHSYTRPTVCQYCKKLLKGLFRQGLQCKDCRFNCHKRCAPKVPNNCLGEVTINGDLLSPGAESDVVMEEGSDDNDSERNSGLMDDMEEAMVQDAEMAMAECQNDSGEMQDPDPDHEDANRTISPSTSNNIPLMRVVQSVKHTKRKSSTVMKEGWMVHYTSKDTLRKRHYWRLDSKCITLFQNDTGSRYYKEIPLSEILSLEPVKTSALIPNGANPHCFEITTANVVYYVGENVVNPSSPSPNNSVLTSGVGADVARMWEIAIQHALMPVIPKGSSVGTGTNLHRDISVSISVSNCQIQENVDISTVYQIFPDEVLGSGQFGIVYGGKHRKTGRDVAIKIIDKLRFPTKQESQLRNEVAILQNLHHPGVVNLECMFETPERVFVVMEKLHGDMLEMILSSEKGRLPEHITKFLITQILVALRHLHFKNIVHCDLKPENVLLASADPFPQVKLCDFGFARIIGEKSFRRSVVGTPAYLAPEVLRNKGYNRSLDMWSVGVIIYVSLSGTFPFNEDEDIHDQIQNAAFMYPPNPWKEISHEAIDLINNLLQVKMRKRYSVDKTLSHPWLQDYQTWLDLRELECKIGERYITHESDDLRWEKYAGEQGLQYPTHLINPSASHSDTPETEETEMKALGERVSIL
Protocol: Inhibition of PKD 1 in cells was determined by densitometry analysis of Western blotting data for PKD1 autophosphorylation at Ser^916 in LNCaP cells as previously described. LNCaP cells were pre-treated with PKD inhibitors for 45 min at various concentrations, and then stimulated with 10 nM phorbol 12-myristate 13-acetate (PMA) for 20 min. Cells were then collected and lysed in lysis buffer containing 200 mM Tris-HCl, pH 7.4, 100 μM 4-(2-aminoethyl) benzenesulfonyl fluoride, 1 mM EGTA, and 1% Triton X-100. Cell lysates were probed by Western blot analysis using primary antibodies targeting p-S916-PKD1 (Millipore), PKD1 (Cell Signaling Technology), or GAPDH. Densitometry analysis of visualized bands was used to determine the cellular IC50 values for PKD1 inhibition.

[3] = target: T1, PKD1; experiment: % PKD1 activity at 1 μM (single concentration; assay format not stated); format: biochemical; conditions: compound at 1 μM
[4] = target: T1, PKD1; experiment: In vitro radiometric PKD kinase activity assay; format: biochemical; parameters: purchased Biomol International; conditions: for inhibitory activity against PKD (in words): preliminary biological data for kmg-NB5-13 and kmg-NB5-15; for fold improvement in PKD1 potency over CID755673: relative to parent CID755673
Protocol: In vitro radiometric PKD kinase assays were conducted as previously described. Briefly, 50 ng recombinant human PKD1 (Biomol International, Plymouth Meeting, PA, USA) was incubated at 30 °C for 10 min with a reaction mixture containing 2.5 μg syntide-2 (Sigma), 70 μM ATP, and 1 μCi γ-^32 P-ATP (PerkinElmer, Boston, MA, USA) in kinase buffer (50 mM Tris-HCl pH 7.5, […], and 10 mM […]). 25 μL of the reaction mixture was then spotted on Whatman P81 filter paper (Whatman Inc., Clifton, NJ, USA), and filter papers were washed three times with 0.5% phosphoric acid, dried, then counted using a Beckman LS6500 multi-purpose scintillation counter.

[5] = target: T1, PKD1; experiment: IMAP-based PKD Fluorescence Polarization (FP) assay, automated HTS format; format: biochemical; conditions: mean ± SEM, n = number of independent experiments
Protocol: An automated, HTS formatted IMAP-based PKD Fluorescence Polarization (FP) assay was used to assess the specificity of the PKD analogs as previously described. […] Kinase reactions were incubated for 90 min at room temperature and stopped by the addition of IMAP binding reagent. Assay plates were then incubated for 2 h and IMAP-based FP data were captured on a Molecular Devices Spectra-Max M5 (Sunnyvale, CA, USA).

[6] = Stability in protic solvents; format: physicochemical; conditions: attributed to nucleophilic attack at C-4 of the pyrimidine
[7] = Preliminary in vivo studies (plasma half-life, metabolism; data not shown); conditions: for plasma half-life: preliminary in vivo studies, data not shown
[8] = Aqueous solubility; format: physicochemical; conditions: aqueous medium with lipophilic solubilizing agents; even in the presence of lipophilic solubilizing agents
[9] = PKD1 autophosphorylation at S916 in LNCaP cells, mean ± SEM
[10] = mean ± SEM, n = number of independent experiments, read-out: IC50 Radiometric PKD1

Compound: CC[C@@H](N)CNc1ccnc(-c2cc(-c3cnn(C)c3)ccc2O)n1.Cl.Cl [CRT0066101]
IC50s, all isoforms of PKD [1]: single-digit nanomolar

Compound: O=C1NCCCSc2c1sc1ccc(O)cc21 [kb-NB165-92, 2,3,4,5-Tetrahydro-10-hydroxybenzo[b]thieno[2,3-f]-1,5-thiazocin-6-one]
IC50 [2, 9]: 2560 ± 660 nM
remaining activity at 1 µM [3]: 16.7%
IC50 [4, 10]: 110 ± 10 nM

IC50 Cellular PKD1 [2, 9]: no significant cellular activity
IC50 [4, 10]: 130 ± 10 nM
IC50 [5]: 2140 ± 120 nM
Compound: O=C1NCCCc2c1[nH]c1ccc(O)cc21 [kb-NB123-57, 3,4,5,10-Tetrahydro-7-hydroxy-azepino[3,4-b]indol-1(2H)-one]

IC50 [4, 10]: 25300 nM
inhibitory activity against PKD (in words) [4]: only weak inhibitory effect
Compound: O=C1NCCSc2c1sc1cnc(O)nc21 [kmg-NB4-69A, 2-Hydroxy-7H,8H,9H-1,4-thiazepino[7′,6′-5,4]thiopheno[3,2-d]pyrimidin-6-one]
stability in protic solvents [6]: spontaneously degrades in protic solvents

Compound: NC(=O)c1cc(-c2ccnc(NC3CCCCC3)c2)nc(N2CCNCC2)c1 [BPKDi]
IC50 values, all three isoforms of PKD [1]: single digit nanomolar

melting point: 193 °C (dec.)
IC50 [2, 9]: 2200 nM and 2170 nM
IC50 ([4]; in vitro, read-out: PKD1 IC50): 74.9 nM
IC50 [4, 10]: 80 ± 10 nM
Compound: [N-]=[N+]=Nc1ccc2sc3c(c2c1)SCCNC3=O [mcf292-08, 3,4-Dihydro-9-azido-[1]benzothieno[2,3-f]-1,4-thiazepin-5(2H)-one]

Compound: O=C1NCCCc2c1oc1ccc(O)cc21 [CID755673, 7-Hydroxy-2,3,4,5-tetrahydro-[1]benzoxolo[2,3-c]azepin-1-one]
IC50 [2, 9]: 11800 ± 4000 nM
EC50 [2]: 11800 nM
IC50 [1]: 200 to 300 nM
IC50 [4, 10]: 180 ± 20 nM
IC50 [5]: 640 ± 30 nM

Compound: COc1ccc2sc3c(c2c1)SCCNC3=O [kb-NB165-09, 3,4-Dihydro-9-methoxy-[1]benzothieno[2,3-f]-1,4-thiazepin-5(2H)-one]
IC50 [2, 9]: 3130 ± 540 nM
EC50 [2]: 3100 nM
fold improvement in cellular activity over CID755673 [2]: ca. 5 fold
IC50 [4, 10]: 80 ± 10 nM
fold improvement in PKD1 potency over CID755673 [4]: ca. 7 fold
plasma half-life [7]: short

Compound: O=C1NCCSc2c1sc1ccc(O)c(I)c21 [kb-NB165-31, 3,4-Dihydro-9-hydroxy-10-iodo-[1]benzothieno[2,3-f]-1,4-thiazepin-5(2H)-one]
melting point: 128 °C (dec.)
fold lower cellular activity than kb-NB142-70 ([2]; relative to kb-NB142-70): 4 fold
remaining activity at 1 µM [3]: 13.6%
IC50 ([4]; in vitro, read-out: PKD1 IC50): 114 nM
IC50 [4, 10]: 110 ± 20 nM

Compound: C[C@H](C#N)Nc1cccc(-c2cc(-c3ccc(CNC4CCOCC4)cc3)on2)c1 [Compound 2b]
IC50s, all PKD isoforms [1]: low nanomolar
fold preference for PKD1 versus PKD2 [1]: 9 fold
fold preference for PKD1 versus PKD3 [1]: 3 fold

solubility [8]: < 400 µg/mL
melting point: 308 °C (dec.)
IC50 [2, 9]: 6800 ± 1300 nM
IC50 ([4]; in vitro, read-out: PKD1 IC50): 124 nM
IC50 [4, 10]: 120 ± 30 nM
inhibitory activity against PKD (in words) [4]: potent nanomolar inhibitor
Compound: COc1ncc2sc3c(c2n1)SCCNC3=O [kmg-NB4-23, 2-Methoxy-7H,8H,9H-1,4-thiazepino [7′,6′-5,4]thiopheno[3,2-d]pyrimidin-6-one]

Compound: O=C1NCCSc2c1sc1ccc(O)cc21 [kb-NB142-70, 3,4-Dihydro-9-hydroxy-[1]benzothieno[2,3-f]-1,4-thiazepin-5(2H)-one]
IC50 [2, 9]: 2220 ± 590 nM
EC50 [2]: 2200 nM
fold improvement in cellular activity over CID755673 [2]: ca. 5 fold
IC50 [4, 10]: 28 ± 2 nM
fold improvement in PKD1 potency over CID755673 [4]: ~7 fold
IC50 [5]: 710 ± 20 nM
plasma half-life [7]: short
major metabolic pathway ([7]; preliminary results from an animal model): glucuronidation of kb-NB142-70 at the phenolic position to be a major metabolic pathway
